Measured values as given in patent US8609610B2, “Inhibitors of the trypsin-like site of the proteasome and methods of use thereof” (Trustees of Dartmouth College, priority 2011, dated 2013).

Assays:
KMS-12-BM cells = experiment: ALAMAR BLUE cell viability assay; format: cell-based; conditions: viability at 48 h
Method: (§1) RPMI-8226 and NCI-H929 cells were cultured in RPMI-1640 supplemented with 10% fetal bovine serum, penicillin, streptomycin, and plasmocin in 5% CO2 humidified incubator. HEK-293T cells were cultured in DMEM containing 10% fetal calf serum, 10 units/mL penicillin, and 10 μg/mL streptomycin in a 7% CO2 humidified incubator. Viability of multiple myeloma cells was measured with ALAMAR BLUE mitochondrial dye conversion assay. Viability of peripheral blood mononuclear cells (PBMNCs) was measured using CELL TITER-GLO luminescent cell viability assay (Promega), which is based on quantification of ATP present in the cells. Caspase-3/7 activity was measured using APO-ONE 3/7 homogeneous assay (Promega).

NCI-H929 cells = experiment: ALAMAR BLUE cell viability assay; format: cell-based; conditions: NCI-H929, viability at 48 h
Method: as §1

chymotrypsin-like sites = conditions: patients treated with bortezomib, maximal tolerated doses; cited from earlier work
[1] = tested on: T1, chymotrypsin-like sites (β5) of proteasome in MM cells; experiment: PROTEASOMEGLO assay of proteasome inhibition in MM cells; format: cell-based; conditions: for Inhibition of chymotrypsin-like sites, 6 h −NC-022 / Inhibition of chymotrypsin-like sites, 6 h +NC-022: washout
T1 construct: other: NCI-H929; bortezomib 100 nM 1 h; bortezomib 11 nM 1 h; bortezomib 3.7 nM 1 h; bortezomib 33 nM 1 h; other: NCI-H9

[2] = molecular target: T2, trypsin-like sites (β2) of proteasome in MM cells (Homo sapiens, UniProt Q99436); experiment: as above; format: cell-based; conditions: for Inhibition of trypsin-like sites, 6 h +NC-022 / Inhibition of trypsin-like sites, 6 h −NC-022: washout
T2 construct: endogenous in cells; host or cells: NCI-H929, RPMI-8226 and other MM cell lines
T2 sequence (Q99436 44-277): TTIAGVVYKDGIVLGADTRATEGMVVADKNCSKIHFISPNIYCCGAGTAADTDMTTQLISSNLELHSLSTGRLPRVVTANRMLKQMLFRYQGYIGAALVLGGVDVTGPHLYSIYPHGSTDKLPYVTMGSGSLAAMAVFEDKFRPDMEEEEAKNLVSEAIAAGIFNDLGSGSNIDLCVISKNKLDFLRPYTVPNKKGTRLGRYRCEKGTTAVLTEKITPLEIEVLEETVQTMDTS

[3] = tested on: chymotrypsin-like sites (β5) of proteasome in MM cells; experiment: as above; format: cell-based; conditions: KMS-12-BM, washout
[4] = KMS-12-BM, bortezomib 33.3 nM 1 h
[5] = KMS-12-BM, bortezomib 100 nM 1 h
[6] = KMS-12-BM, bortezomib 300 nM 1 h
[7] = KMS-12-BM, bortezomib 900 nM 1 h
[8] = NCI-H929, bortezomib 3.7 nM 1 h
[9] = NCI-H929, bortezomib 100 nM 1 h

CC(C)C[C@H](NC(=O)[C@H](Cc1ccccc1)NC(=O)c1cnccn1)B(O)O [Bortezomib]
Viability +NC-022 (KMS-12-BM cells; bortezomib 33.3 nM 1 h): 72 ± 1 % control | Viability −NC-022 (KMS-12-BM cells; bortezomib 33.3 nM 1 h): 98 ± 13 % control | Viability +NC-022 (KMS-12-BM cells; bortezomib 100 nM 1 h): 42 ± 10 % control | Viability −NC-022 (KMS-12-BM cells; bortezomib 100 nM 1 h): 92 ± 9 % control | Viability +NC-022 (KMS-12-BM cells; bortezomib 300 nM 1 h): 14 ± 11 % control | Viability −NC-022 (KMS-12-BM cells; bortezomib 300 nM 1 h): 66 ± 9 % control | Viability +NC-022 (KMS-12-BM cells; bortezomib 900 nM 1 h): 3.8 ± 2.5 % control | Viability −NC-022 (KMS-12-BM cells; bortezomib 900 nM 1 h): 14 ± 12 % control | Viability +NC-022 (NCI-H929 cells; bortezomib 3.7 nM 1 h): 85 ± 3 % control | Viability −NC-022 (NCI-H929 cells; bortezomib 3.7 nM 1 h): 107 ± 5 % control | Viability +NC-022 (NCI-H929 cells; bortezomib 11 nM 1 h): 65 ± 1 % control | Viability −NC-022 (NCI-H929 cells; bortezomib 11 nM 1 h): 106 ± 2 % control | Viability +NC-022 (NCI-H929 cells; bortezomib 33 nM 1 h): 19 ± 19 % control | Viability −NC-022 (NCI-H929 cells; bortezomib 33 nM 1 h): 53 ± 17 % control | Viability +NC-022 (NCI-H929 cells; bortezomib 100 nM 1 h): 1.9 ± 1.5 % control | Viability −NC-022 (NCI-H929 cells; bortezomib 100 nM 1 h): 2.9 ± 1.5 % control | inhibition of the chymotrypsin-like sites in patients (chymotrypsin-like sites): ≤ 70% | Inhibition of chymotrypsin-like sites, 1 h [1, 4]: 82 ± 8 % control | Inhibition of chymotrypsin-like sites, 6 h −NC-022 [1, 4]: 56 ± 24 % control | Inhibition of chymotrypsin-like sites, 1 h [1, 5]: 90 ± 6 % control | Inhibition of chymotrypsin-like sites, 6 h −NC-022 [1, 5]: 64 ± 23 % control | Inhibition of chymotrypsin-like sites, 1 h [1, 6]: 93 ± 3 % control | Inhibition of chymotrypsin-like sites, 6 h +NC-022 [1, 6]: 83 ± 6 % control | Inhibition of chymotrypsin-like sites, 6 h −NC-022 [1, 6]: 76 ± 18 % control | Inhibition of chymotrypsin-like sites, 1 h [1, 7]: 93 ± 5 % control | Inhibition of chymotrypsin-like sites, 6 h +NC-022 [1, 7]: 88 ± 5 % control | Inhibition of chymotrypsin-like sites, 6 h −NC-022 [1, 7]: 84 ± 16 % control | Inhibition of chymotrypsin-like sites, 1 h [1, 8]: 9 ± 7 % control | Inhibition of chymotrypsin-like sites, 6 h +NC-022 [1, 8]: 14 ± 13 % control | Inhibition of chymotrypsin-like sites, 6 h −NC-022 [1, 8]: 13 ± 1 % control | Inhibition of chymotrypsin-like sites, 1 h ([1]; NCI-H929, bortezomib 11 nM 1 h): 64 ± 7 % control | Inhibition of chymotrypsin-like sites, 6 h +NC-022 ([1]; NCI-H929, bortezomib 11 nM 1 h): 34 ± 29 % control | Inhibition of chymotrypsin-like sites, 6 h −NC-022 ([1]; NCI-H929, bortezomib 11 nM 1 h): 41 ± 3.5 % control | Inhibition of chymotrypsin-like sites, 1 h ([1]; NCI-H929, bortezomib 33 nM 1 h): 89 ± 2 % control | Inhibition of chymotrypsin-like sites, 6 h +NC-022 ([1]; NCI-H929, bortezomib 33 nM 1 h): 48 ± 35 % control | Inhibition of chymotrypsin-like sites, 6 h −NC-022 ([1]; NCI-H929, bortezomib 33 nM 1 h): 85 ± 4 % control | Inhibition of chymotrypsin-like sites, 1 h [1, 9]: 96 ± 2 % control | Inhibition of chymotrypsin-like sites, 6 h +NC-022 [1, 9]: 93 ± 2 % control | Inhibition of chymotrypsin-like sites, 6 h −NC-022 [1, 9]: 86 ± 1 % control | Inhibition of trypsin-like sites, 1 h [2, 4]: 10 ± 11 % control | Inhibition of trypsin-like sites, 6 h +NC-022 [2, 4]: 92 ± 0 % control | Inhibition of trypsin-like sites, 6 h −NC-022 [2, 4]: 8 ± 15 % control | Inhibition of trypsin-like sites, 1 h [2, 5]: 19 ± 3 % control | Inhibition of trypsin-like sites, 6 h +NC-022 [2, 5]: 92 ± 1 % control | Inhibition of trypsin-like sites, 6 h −NC-022 [2, 5]: 15 ± 11 % control | Inhibition of trypsin-like sites, 1 h [2, 6]: 22 ± 12 % control | Inhibition of trypsin-like sites, 6 h +NC-022 [2, 6]: 91 ± 2 % control | Inhibition of trypsin-like sites, 6 h −NC-022 [2, 6]: 24 ± 18 % control | Inhibition of trypsin-like sites, 1 h [2, 7]: 28 ± 5 % control | Inhibition of trypsin-like sites, 6 h +NC-022 [2, 7]: 93 ± 1 % control | Inhibition of trypsin-like sites, 6 h −NC-022 [2, 7]: 26 ± 19 % control | Inhibition of trypsin-like sites, 1 h [2, 8]: 0 ± 7 % control | Inhibition of trypsin-like sites, 6 h +NC-022 [2, 8]: 93 ± 2 % control | Inhibition of trypsin-like sites, 6 h −NC-022 [2, 8]: 6 ± 4 % control | Inhibition of trypsin-like sites, 1 h ([2]; NCI-H929, bortezomib 11 nM 1 h): 8 ± 11 % control | Inhibition of trypsin-like sites, 6 h +NC-022 ([2]; NCI-H929, bortezomib 11 nM 1 h): 93 ± 2 % control | Inhibition of trypsin-like sites, 6 h −NC-022 ([2]; NCI-H929, bortezomib 11 nM 1 h): 14 ± 2 % control | Inhibition of trypsin-like sites, 1 h ([2]; NCI-H929, bortezomib 33 nM 1 h): 26 ± 15 % control | Inhibition of trypsin-like sites, 6 h +NC-022 ([2]; NCI-H929, bortezomib 33 nM 1 h): 94 ± 1 % control | Inhibition of trypsin-like sites, 6 h −NC-022 ([2]; NCI-H929, bortezomib 33 nM 1 h): 31 ± 0 % control | Inhibition of trypsin-like sites, 1 h [2, 9]: 36 ± 17 % control | Inhibition of trypsin-like sites, 6 h +NC-022 [2, 9]: 96 ± 1 % control | Inhibition of trypsin-like sites, 6 h −NC-022 [2, 9]: 45 ± 2 % control | Inhibition of chymotrypsin-like sites, 6 h +NC-022 ([3]; bortezomib 33.3 nM 1 h): 62 ± 7 % control | Inhibition of chymotrypsin-like sites, 6 h +NC-022 ([3]; bortezomib 100 nM 1 h): 75 ± 6 % control
